Values joined by “and” are separate entries in the source; they are usually repeats but may differ in a detail not shown here. Equal values may be shown once.
Tests used:
male Wistar rats = experiment: Sub-chronic intake of high dose agmatine sulfate in the drinking water (Example II); format: in vivo, rat; conditions: for Blood Pressure (mmHg), systolic, mean / Daily Drinking (ml), mean / Body Weight (g), mean: group mean; for Body Weight / Blood Pressure (mmHg), systolic / Daily Drinking: individual animal, sulfate
Description: The experiment was performed at Assaf Harofeh Medical Center, Israel, according to the Institutional Animal Care and Use Committee approved protocol. Three-month-old male Wistar rats (Harlan, Israel) weighing 250±20 g were caged individually under standard vivarium conditions of temperature (22±2° C.), humidity (55-75%) and light (12 h light-dark cycle) with a free supply of food and water. Experimental animals (n=10) drank sterile water containing agmatine sulfate 5.3 g/l, while controls (n=10) drank regular sterile drinking-water for 95 days. Drinking-water containing agmatine sulfate have bitter taste.
Animal body weight and systolic blood pressure (SBP) as measured by tail-cuff plethysmography (IITC Life Science, Woodland Hills, Calif.) were measured at the starting day of the experiment (day 1) and at various intervals thereafter. General behavior, fur appearance and feces appearance were also assessed. Water consumption was measured daily. After 95 days, 5 animals of each group were deeply anesthetized ([…] sodium pentobarbital, intraperitoneal) and the stomach, kidney, heart and liver removed for gross inspection. The stomach was inspected for appearance of ulcers. The rest of the animals, in both the control and experimental groups, were all maintained on regular diet (without agmatine sulfate in the drinking-water) for additional 20 days and then killed (on the 115th day). Results were evaluated by analysis of variance (ANOVA) procedure. Differences were analyzed by 2-tailed t-test and values of p≦0.05 were considered statistical significant. For data normalization, differences were expressed as percent change of day 1 values.

humans = experiment: Open label dose-escalating safety and tolerability study of dietary agmatine sulfate capsules (Example I); format: in vivo, human; conditions: oral doses of up to 2.67 g/day for over 2 years
[1] = tested on: participants with lumbar disc-associated radiculopathy; experiment: Randomized, double-blind, placebo-controlled trial in lumbar disc-associated radiculopathy; format: in vivo, human; conditions: 2.670 g/day for 14 days
Source text: This recommendation is supported by recent clinical trials (Keynan O, Mirovsky Y, Dekel S, Gilad V H, Gilad G M. Safety and efficacy of dietary agmatine sulfate in lumbar disc-associated radiculopathy. An open label, dose-escalating study followed by a randomized, double-blind, placebo-controlled trial. Pain Med, (2010) in press). […] In the randomized, double-blind, placebo-controlled (RCT) trial, eligible participants received either placebo or agmatine sulfate (2.670 g/day for 14 days) in a double-blind fashion. Analysis was performed on 30 participants in the placebo and 31 in the agmatine sulfate arm. […] Secondary outcomes included assessments of safety and tolerability. […] While the severity of pain symptoms and general health status improved with time in both placebo and agmatine sulfate-treated groups, the improvements were more pronounced in the agmatine sulfate-treated group. […] Importantly, none of the participants reported worsening in their general health status.
Results, mean (±SEM, vertical lines) values are expressed as percent of baseline values. Asterisks indicate significant differences between the placebo- and agmatine sulfate-treated groups (p 0.033).

[2] = Day 115 (20 days after treatment)

N=C(N)NCCCCN.O=S(=O)(O)O [agmatine sulfate]
Blood Pressure (mmHg), systolic, mean (male Wistar rats; Day 1): 106.4 mmHg | Daily Drinking (ml), mean (male Wistar rats; Day 1): 34.8 mL | Body Weight (g), mean (male Wistar rats; Day 1, n=10): 253.4 g | Blood Pressure (mmHg), systolic, mean (male Wistar rats; Day 21, p<0.05 vs day 1): 103.5 ± mmHg | Body Weight (g), mean (male Wistar rats; Day 21, p<0.05 vs day 1): 247.3 ± g | Daily Drinking (ml), mean (male Wistar rats; Day 21, p<0.05 vs day 1): 25.1 ± ml | Blood Pressure (mmHg), systolic, mean (male Wistar rats; Day 95, p<0.05 vs day 1): 103.1 ± mmHg | Body Weight (g), mean (male Wistar rats; Day 95, p<0.05 vs day 1): 258.9 ± g | Daily Drinking (ml), mean (male Wistar rats; Day 95, p<0.05 vs day 1): 29.2 ± ml | Body Weight (g), mean (male Wistar rats; Day 115 (20 days after treatment), n=5, p<0.05 vs day 1): 261.4 ± g | Blood Pressure (mmHg), systolic, mean (male Wistar rats; Day 115, n=5): 105.8 mmHg | Daily Drinking (ml), mean (male Wistar rats; Day 115, n=5): 34.9 mL | Body Weight (male Wistar rats; Day 1 (beginning), 5.3 g/l in drinking water): 250 g (2×) and 265 g and 255 g and 257 g and 247 g and 245 g and 252 g and 260 g and 253 g | Blood Pressure (mmHg), systolic (male Wistar rats; Day 1, tail-cuff): 99.0 mmHg and 100.0 mmHg and 105.0 mmHg (2×) and 112.0 mmHg and 115.0 mmHg and 110.0 mmHg and 109.0 mmHg and 102.0 mmHg and 107.0 mmHg | Daily Drinking (male Wistar rats; Day 1): 35.5 ml and 34.8 ml and 35.6 ml (2×) and 34.7 ml and 33.4 ml and 35.0 ml (2×) and 33.8 ml and 34.5 ml | Blood Pressure (mmHg), systolic (male Wistar rats; Day 21): 97.0 mmHg and 95.0 mmHg and 100.0 mmHg (2×) and 109.0 mmHg and 115.0 mmHg and 103.0 mmHg (2×) and 107.0 mmHg and 106.0 mmHg | Daily Drinking (male Wistar rats; Day 21): 21.4 mL and 25.3 mL and 25.1 mL and 25.0 mL and 24.1 mL and 25.5 mL and 26.4 mL and 24.9 mL and 27.0 mL and 26.7 mL | Body Weight (male Wistar rats; Day 21 of treatment): 255 g (2×) and 245 g (3×) and 260 g and 227 g and 242 g and 250 g and 249 g | Blood Pressure (mmHg), systolic (male Wistar rats; Day 95): 95.0 mmHg and 97.0 mmHg and 101.0 mmHg (2×) and 110.0 mmHg and 112.0 mmHg and 105.0 mmHg (2×) and 106.0 mmHg and 99.0 mmHg | Daily Drinking (male Wistar rats; Day 95): 25.6 ml and 28.7 ml and 30.0 ml (2×) and 27.7 ml and 29.6 ml and 30.3 ml and 28.4 ml and 31.3 ml and 30.6 ml | Body Weight (male Wistar rats; Day 95 of treatment): 265 g and 257 g (2×) and 273 g and 253 g and 251 g and 255 g (2×) and 263 g and 260 g | Blood Pressure (mmHg), systolic (male Wistar rats; [2]): 108.0 mmHg and 107.0 mmHg (2×) and 104.0 mmHg and 103.0 mmHg | Body Weight (male Wistar rats; [2]): 256 g and 261 g and 259 g and 267 g and 264 g | Daily Drinking (male Wistar rats; [2]): 34.5 mL and 35.3 mL and 34.9 mL and 35.0 mL and 34.8 mL | Stomach ulcers (male Wistar rats; inspection after 95 days): no stomach ulcers were observed | Average daily water consumption (male Wistar rats; over the 95 day treatment period): 27.15 mL | Inspection of main internal organs (male Wistar rats; stomach, kidney, heart, liver): did not reveal any gross changes | Adverse effects (humans): have not been associated with any adverse effects | Adverse effects during the trial ([1]; 31 participants): no adverse effects were noted | Improvement in general health status, SF-36 Total Score, compared to placebo ([1]; follow-up 15-20 day, p=0.013): statistically significant enhanced improvements | Improvement in pain measures (Visual Analogue Scale) compared to placebo ([1]; follow-up 15-20 day, p=0.033): statistically significant enhanced improvements

— patent US8916612B2, “Agmatine containing dietary supplements, nutraceuticals, and foods” (priority 2008, dated 2014)
